Assay results: article PMC6704710, “Preclinical evaluation of 3D185, a novel potent inhibitor of FGFR1/2/3 and CSF-1R, in FGFR-dependent and macrophage-dominant cancer models” (Journal of Experimental & Clinical Cancer Research : CR, 2019)

Tests used:
BMDM (CSF-1) = test: Macrophage survival (CCK-8); assay type: cell-based, murine; conditions: Mus musculus, BMDM, 168 h; 7 days, mean ± SD
Experimental: Murine bone marrow and human monocytes were stimulated with CSF-1 for 7 days together with the indicated inhibitor, and cell viability was evaluated by the CCK-8 assay. The IC50 values are shown as the mean ± SD (nM) from two independent tests. B-E, To test the impact of 3D185 on the polarization of CSF-1-induced macrophages, murine bone marrow cells and human monocytes were induced to mature into macrophages with CSF-1 for 7 days and then stimulated with CSF-1, IL-4 and IL-13 for an additional 48 h. The expression of the markers MHC-II (b), CD86 (c), and CD206 (d) on induced murine macrophages and CD206 expression on induced human macrophages (e) were determined by flow cytometry, and the mean fluorescence intensity (MFI) was analyzed with FlowJo. Representative data from two independent experiments. f Murine bone marrow cells (left panel) and human monocytes (right panel) were induced to mature into macrophages with CSF-1 for 7 days and then stimulated with CSF-1, IL-4 and IL-13 and treated with vehicle or the indicated inhibitor for an additional 48 h. Then, all cells were collected to count viable cells by staining with trypan blue
(§1) Murine bone marrow-derived macrophages (BMDMs) and PBMCs were used for cell viability studies. BMDMs were harvested by flushing the tibias and femurs of 6- to 8-week-old C57BL/6 mice and depleting red blood cells (RBCs) by RBC lysis (Biogems). For BMDM survival, the cells were cultured for 7 days in RPMI 1640 containing 10% fetal bovine serum (FBS), 100 U/mL penicillin, 100 μg/mL streptomycin and 100 ng/mL mouse CSF-1 (or CSF-2) with or without the tested compounds. PBMCs were obtained from HemaCare and cultured for 7 days in RPMI 1640 containing 10% fetal bovine serum (FBS), 100 U/mL penicillin, 100 μg/mL streptomycin and 100 ng/mL human CSF-1 (or CSF-2) with or without the tested compounds. Cell viability was measured using the CCK-8 assay. For IL-4/IL-13-induced macrophage survival analysis, viable cells were counted by trypan blue exclusion.

[1] = tested on: MC38 colorectal adenocarcinoma model; test: In vivo antitumor activity, MC38 model; set-up: species or system C57BL/6 mice; conditions: oral once daily 23 days
Experimental: For the MC38 xenograft model, 6-week-old C57BL/6 mice were housed and maintained under specific pathogen-free conditions. Tumor cells (2 × 10^6 in 200 μL) were injected subcutaneously (s.c.) into the right flanks of C57BL/6 mice. […] The tumors were measured twice per week using a microcaliper. Tumor volume (TV) was calculated as follows: TV = (length × width^2)/2. In addition, the individual relative tumor volume (RTV) was calculated as follows: RTV = Vt / V0, where Vt is the volume on a particular day and V0 is the volume at the beginning of the treatment. The RTV is shown on the indicated days as the […] ± SEM for the indicated groups of mice.

[2] = tested on: CSF-1-differentiated macrophages induced RT112 cell migration; test: Tumor cell migration assay (Transwell co-culture); assay type: cell-based, human; conditions: 25 nM, 24 h
ULK3(h) = target: T1, ULK3(h) (Homo sapiens, UniProt Q6PHR2); test: Eurofins kinase panel; assay type: biochemical; conditions: read-out: Inhibition rate (%)
T1 construct: purchased Eurofins (KinaseProfiler)
T1 sequence (Q6PHR2 1-472): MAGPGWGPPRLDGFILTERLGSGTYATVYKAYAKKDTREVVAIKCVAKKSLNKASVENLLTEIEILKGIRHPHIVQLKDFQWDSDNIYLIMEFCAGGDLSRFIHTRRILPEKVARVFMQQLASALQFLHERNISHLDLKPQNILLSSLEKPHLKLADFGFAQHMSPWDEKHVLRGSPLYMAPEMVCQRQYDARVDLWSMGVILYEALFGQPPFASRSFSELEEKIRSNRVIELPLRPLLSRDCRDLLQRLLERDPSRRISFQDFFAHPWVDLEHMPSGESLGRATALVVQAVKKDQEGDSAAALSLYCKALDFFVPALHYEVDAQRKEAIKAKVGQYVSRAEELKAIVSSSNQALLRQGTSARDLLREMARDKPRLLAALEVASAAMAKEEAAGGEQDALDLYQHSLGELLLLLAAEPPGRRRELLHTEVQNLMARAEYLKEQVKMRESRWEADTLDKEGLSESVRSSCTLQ

BTK(R28H)(h) = target: T2, BTK(R28H)(h) (Homo sapiens, UniProt Q06187, R28H); test: Eurofins kinase panel; assay type: biochemical; conditions: read-out: Inhibition rate (%)
T2 construct: purchased Eurofins (KinaseProfiler)
T2 sequence (Q06187 whole entry R28H): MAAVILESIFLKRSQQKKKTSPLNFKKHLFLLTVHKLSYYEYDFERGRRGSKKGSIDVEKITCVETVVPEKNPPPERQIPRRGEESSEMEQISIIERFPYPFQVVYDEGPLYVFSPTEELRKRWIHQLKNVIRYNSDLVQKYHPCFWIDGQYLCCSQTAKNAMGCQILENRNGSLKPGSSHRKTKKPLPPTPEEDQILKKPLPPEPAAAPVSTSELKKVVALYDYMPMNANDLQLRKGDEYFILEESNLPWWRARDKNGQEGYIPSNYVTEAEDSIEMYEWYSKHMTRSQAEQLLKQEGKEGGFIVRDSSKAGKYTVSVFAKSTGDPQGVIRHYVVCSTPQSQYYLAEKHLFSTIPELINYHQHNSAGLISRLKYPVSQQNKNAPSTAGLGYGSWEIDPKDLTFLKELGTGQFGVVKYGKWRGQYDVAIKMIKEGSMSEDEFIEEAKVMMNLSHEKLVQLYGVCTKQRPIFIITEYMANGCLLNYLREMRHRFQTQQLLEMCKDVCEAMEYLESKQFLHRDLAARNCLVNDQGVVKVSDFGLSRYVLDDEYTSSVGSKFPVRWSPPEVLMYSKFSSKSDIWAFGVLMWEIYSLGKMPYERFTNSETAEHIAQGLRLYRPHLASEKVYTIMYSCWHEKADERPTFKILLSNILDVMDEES

SIK2(h) = target: T3, SIK2(h) (Homo sapiens, UniProt Q9H0K1); test: Eurofins kinase panel; assay type: biochemical; conditions: read-out: Inhibition rate (%)
T3 construct: purchased Eurofins (KinaseProfiler)
T3 sequence (Q9H0K1 whole entry): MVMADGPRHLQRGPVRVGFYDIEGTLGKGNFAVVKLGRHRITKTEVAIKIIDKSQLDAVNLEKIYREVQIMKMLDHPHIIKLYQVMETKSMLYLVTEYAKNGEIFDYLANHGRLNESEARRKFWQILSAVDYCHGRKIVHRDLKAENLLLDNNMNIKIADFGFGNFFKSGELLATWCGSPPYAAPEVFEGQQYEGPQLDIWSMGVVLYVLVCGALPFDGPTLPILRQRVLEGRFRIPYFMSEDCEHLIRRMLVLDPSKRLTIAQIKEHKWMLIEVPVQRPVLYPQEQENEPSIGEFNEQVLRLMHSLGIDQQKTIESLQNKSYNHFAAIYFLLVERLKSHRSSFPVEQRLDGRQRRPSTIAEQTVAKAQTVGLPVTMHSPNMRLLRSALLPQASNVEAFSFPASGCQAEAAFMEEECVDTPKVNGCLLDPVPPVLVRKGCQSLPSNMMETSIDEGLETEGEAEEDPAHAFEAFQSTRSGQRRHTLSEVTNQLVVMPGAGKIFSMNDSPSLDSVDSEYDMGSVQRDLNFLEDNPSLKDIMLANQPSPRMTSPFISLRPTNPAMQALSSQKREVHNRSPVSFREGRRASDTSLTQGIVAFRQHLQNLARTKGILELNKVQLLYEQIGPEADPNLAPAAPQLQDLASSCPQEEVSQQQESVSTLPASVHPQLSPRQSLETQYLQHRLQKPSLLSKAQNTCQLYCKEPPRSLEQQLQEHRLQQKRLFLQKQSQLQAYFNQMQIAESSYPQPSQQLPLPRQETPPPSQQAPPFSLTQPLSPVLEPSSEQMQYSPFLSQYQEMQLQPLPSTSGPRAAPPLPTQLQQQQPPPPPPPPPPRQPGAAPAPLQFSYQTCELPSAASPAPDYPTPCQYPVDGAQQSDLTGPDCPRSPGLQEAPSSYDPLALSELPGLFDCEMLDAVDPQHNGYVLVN

MST4(h) = target: T4, MST4(h) (Homo sapiens, UniProt Q9P289); test: Eurofins kinase panel; assay type: biochemical; conditions: read-out: Inhibition rate (%)
T4 construct: purchased Eurofins (KinaseProfiler)
T4 sequence (Q9P289 whole entry): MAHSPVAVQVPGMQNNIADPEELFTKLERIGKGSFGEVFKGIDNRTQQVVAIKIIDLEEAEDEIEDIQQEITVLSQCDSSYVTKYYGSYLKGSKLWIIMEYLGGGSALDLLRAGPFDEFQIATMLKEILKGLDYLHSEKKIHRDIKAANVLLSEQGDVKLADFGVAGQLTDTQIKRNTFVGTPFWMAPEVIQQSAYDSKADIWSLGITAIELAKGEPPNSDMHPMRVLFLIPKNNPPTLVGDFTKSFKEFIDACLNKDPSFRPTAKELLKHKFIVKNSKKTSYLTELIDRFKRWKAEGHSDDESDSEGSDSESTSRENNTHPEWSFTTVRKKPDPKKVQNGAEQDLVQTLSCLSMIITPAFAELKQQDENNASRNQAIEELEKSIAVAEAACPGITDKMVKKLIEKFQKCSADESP

Mnk2(h) = target: T5, Mnk2(h) (Homo sapiens, UniProt Q9HBH9); test: Eurofins kinase panel; assay type: biochemical; conditions: read-out: Inhibition rate (%)
T5 construct: purchased Eurofins (KinaseProfiler)
T5 sequence (Q9HBH9 whole entry): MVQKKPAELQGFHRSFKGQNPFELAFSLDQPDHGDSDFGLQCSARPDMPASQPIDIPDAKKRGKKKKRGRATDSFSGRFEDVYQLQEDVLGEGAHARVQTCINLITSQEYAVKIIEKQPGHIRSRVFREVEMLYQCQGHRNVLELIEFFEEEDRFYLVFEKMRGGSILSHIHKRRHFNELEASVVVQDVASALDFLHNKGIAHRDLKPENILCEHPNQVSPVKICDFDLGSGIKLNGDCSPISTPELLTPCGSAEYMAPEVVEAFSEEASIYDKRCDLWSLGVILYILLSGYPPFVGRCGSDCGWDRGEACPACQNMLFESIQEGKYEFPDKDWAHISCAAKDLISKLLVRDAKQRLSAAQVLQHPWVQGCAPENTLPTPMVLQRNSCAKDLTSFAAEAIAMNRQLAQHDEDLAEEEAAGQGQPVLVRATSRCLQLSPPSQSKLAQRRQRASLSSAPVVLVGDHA

cSRC(h) = target: T6, cSRC(h) (Homo sapiens, UniProt P12931); test: Eurofins kinase panel; assay type: biochemical; conditions: read-out: Inhibition rate (%)
T6 construct: purchased Eurofins (KinaseProfiler)
T6 sequence (P12931 whole entry): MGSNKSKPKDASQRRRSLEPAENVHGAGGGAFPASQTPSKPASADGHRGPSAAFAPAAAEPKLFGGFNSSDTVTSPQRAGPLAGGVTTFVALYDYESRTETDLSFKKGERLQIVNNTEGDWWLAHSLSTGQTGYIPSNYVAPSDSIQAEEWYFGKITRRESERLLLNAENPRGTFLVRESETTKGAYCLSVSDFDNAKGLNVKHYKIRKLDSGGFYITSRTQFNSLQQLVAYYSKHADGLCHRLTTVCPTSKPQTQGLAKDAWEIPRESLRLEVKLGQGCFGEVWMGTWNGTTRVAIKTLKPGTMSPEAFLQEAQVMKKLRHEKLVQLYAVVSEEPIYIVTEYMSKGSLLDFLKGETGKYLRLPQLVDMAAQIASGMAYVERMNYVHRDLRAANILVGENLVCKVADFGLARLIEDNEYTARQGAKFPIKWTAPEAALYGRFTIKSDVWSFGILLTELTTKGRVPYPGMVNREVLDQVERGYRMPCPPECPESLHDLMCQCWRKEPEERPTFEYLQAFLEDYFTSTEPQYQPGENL

ACK1(h) = target: T7, ACK1(h) (Homo sapiens, UniProt Q07912); test: Eurofins kinase panel; assay type: biochemical; conditions: read-out: Inhibition rate (%)
T7 construct: purchased Eurofins (KinaseProfiler)
T7 sequence (Q07912 whole entry): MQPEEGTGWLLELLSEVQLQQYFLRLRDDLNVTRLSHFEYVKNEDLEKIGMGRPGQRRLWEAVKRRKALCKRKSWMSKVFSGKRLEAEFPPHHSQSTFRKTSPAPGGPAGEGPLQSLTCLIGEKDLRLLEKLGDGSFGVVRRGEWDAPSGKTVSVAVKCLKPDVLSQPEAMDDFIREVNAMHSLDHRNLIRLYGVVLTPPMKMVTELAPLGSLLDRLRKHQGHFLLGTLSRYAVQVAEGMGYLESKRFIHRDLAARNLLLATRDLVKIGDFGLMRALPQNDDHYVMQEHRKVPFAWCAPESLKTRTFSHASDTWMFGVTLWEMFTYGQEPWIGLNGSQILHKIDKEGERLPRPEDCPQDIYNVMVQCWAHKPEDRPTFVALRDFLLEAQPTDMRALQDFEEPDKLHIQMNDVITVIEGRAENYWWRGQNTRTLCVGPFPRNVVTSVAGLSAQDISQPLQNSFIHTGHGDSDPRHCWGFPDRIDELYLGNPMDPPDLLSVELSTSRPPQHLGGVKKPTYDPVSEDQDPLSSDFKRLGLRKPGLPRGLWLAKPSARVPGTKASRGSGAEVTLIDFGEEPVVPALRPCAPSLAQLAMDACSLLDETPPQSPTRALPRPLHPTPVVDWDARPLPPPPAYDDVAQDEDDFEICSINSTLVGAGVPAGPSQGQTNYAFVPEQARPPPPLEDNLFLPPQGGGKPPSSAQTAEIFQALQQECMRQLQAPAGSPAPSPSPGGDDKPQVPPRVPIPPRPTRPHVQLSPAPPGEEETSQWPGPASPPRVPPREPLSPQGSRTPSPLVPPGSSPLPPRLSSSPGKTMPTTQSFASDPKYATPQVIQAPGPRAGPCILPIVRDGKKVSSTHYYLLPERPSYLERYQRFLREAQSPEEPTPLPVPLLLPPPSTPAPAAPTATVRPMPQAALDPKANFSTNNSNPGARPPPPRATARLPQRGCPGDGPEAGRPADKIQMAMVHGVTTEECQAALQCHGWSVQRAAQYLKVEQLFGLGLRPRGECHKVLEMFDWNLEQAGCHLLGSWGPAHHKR

BMDM (CSF-2) = test: Macrophage survival (CCK-8); assay type: cell-based, murine; conditions: Mus musculus, BMDM, 168 h; 7 days
Experimental: as §1

COc1cc(OC)c(Cl)c(-c2ccc3c(NC(=O)c4ccc(N5CCNC(C)(C)C5)cc4)n[nH]c3n2)c1Cl [3D185]
IC50 (BMDM (CSF-1)): 57.8 nM
effect on MC38 tumor growth [1]: delayed tumor growth
effect on macrophage-induced RT112 cell migration [2]: blocking most cell migration
inhibition at 0.01 µM (ULK3(h); 10 nM): -8%
inhibition at 0.1 µM (ULK3(h); 100 nM): 2%
inhibition at 1 µM (ULK3(h); 1000 nM): -1%
inhibition at 0.01 µM (BTK(R28H)(h); 10 nM): -3%
inhibition at 0.1 µM (BTK(R28H)(h); 100 nM): -2%
inhibition at 1 µM (BTK(R28H)(h); 1000 nM): -4%
inhibition at 0.01 µM (SIK2(h); 10 nM): 7%
inhibition at 0.1 µM (SIK2(h); 100 nM): 5%
inhibition at 1 µM (SIK2(h); 1000 nM): 4%
inhibition at 0.01 µM (MST4(h); 10 nM): 6%
inhibition at 0.1 µM (MST4(h); 100 nM): 27%
inhibition at 1 µM (MST4(h); 1000 nM): 70%
inhibition at 0.01 µM (Mnk2(h); 10 nM): -2%
inhibition at 0.1 µM (Mnk2(h); 100 nM): -10%
inhibition at 1 µM (Mnk2(h); 1000 nM): -9%
inhibition at 0.01 µM (cSRC(h); 10 nM): 26%
inhibition at 0.1 µM (cSRC(h); 100 nM): 53%
inhibition at 1 µM (cSRC(h); 1000 nM): 87%
inhibition at 0.01 µM (ACK1(h); 10 nM): 1%
inhibition at 0.1 µM (ACK1(h); 100 nM): 37%
inhibition at 1 µM (ACK1(h); 1000 nM): 90%
IC50 (BMDM (CSF-2)): > 1000 nM
